Measurements: US10952992B2, “Methods of treating intraocular pressure with activators of Tie-2” (Aerpio Pharmaceuticals, Inc., priority 2015, dated 2021)
Structures can show the parent of a compound that is named as a salt.

Tested on: intraocular pressure in normotensive New Zealand White rabbits
Test: Example 3 intraocular pressure after repeated topical and subcutaneous administration (pneumotonometer)
Type: in vivo
Procedure: To measure the tolerability and effect of Compound 1 (sodium salt) on intraocular pressure following repeated topical and subcutaneous administration, normotensive New Zealand White rabbits were treated with Compound 1 (sodium salt). Animals were acclimated 1 to 2 times per day to the intraocular pressure (IOP) measurement procedures prior to initiation of the study to determine baseline IOP levels. IOP acclimation was performed in the two weeks prior to study start for a total of 5 days. Animals with unacceptable IOP values were excluded from the study. Prior to taking all IOP measurements, 1 to 2 drops of a 0.5% proparacaine solution were applied to the eye as a topical anesthetic. OP measurements were performed with a pneumotonometer. Test and control formulations were administered to the animals once or twice daily topically into both eyes or subcutaneously starting on Day 1 according to TABLE 20 and TABLE 21 below. PM dosing, where applicable, was performed ˜8 hours after AM dosing. IOP measurements were performed twice (AM and PM) at baseline (prior to the start of dosing), twice (AM and PM) on Days 1 and 7, and once daily (AM) on Days 2-6 and Day 8. Prior to taking all IOP measurements, 1 to 2 drops of a 0.5% proparacaine solution were applied to the eye as a topical anesthetic. IOP measurements were performed with a pneumotonometer. AM IOP measurements were performed 2 hours after AM dosing; the only exceptions were Day 8 AM measurements, which were performed 24 hours after the final dose. PM IOP measurements were performed ˜5 hours (baseline and Day 1) or ˜4 hours (Day 7) after AM IOP measurements, prior to PM dosing, with at least 15 minutes elapsing between anesthetic application for PM IOP measurements and PM dosing. The final round of slit-lamp examinations was performed on Day 8.

For `COC(=O)N[C@@H](Cc1ccccc1)C(=O)N[C@@H](Cc1ccc(NS(=O)(=O)O)cc1)c1csc(-c2cccs2)n1` [Compound 1 sodium salt], the “reduction in IOP values compared to vehicle control” value (10 mg/kg subcutaneous) was “slightly more consistent”, the “lower IOP values compared to Group 1 (Vehicle)” value (Group 2: 0.45 mg/eye topical BID, over the course of dosing) was “not” and the “IOP values compared to Group 1 (Vehicle)” value (Group 3: 1.2 mg/eye topical BID, over the course of dosing) was “lower IOP values”. For the same molecule, the “IOP values compared to Group 1 (Vehicle)” value (Group 4: 1.2 mg/eye topical QD, over the course of dosing) was “lower IOP values”, the “IOP values compared to Group 1 (Vehicle)” value (Group 5: 10 mg/kg subcutaneous BID, early part of the study, difference decreased towards the end) was “Lower IOP values” and the “apparent reduction in intraocular pressure values” (Groups 3 and 4 (1.2 mg/eye topical BID, QD), Day 7 and Day 8 (24 hours after the end of dosing)) was “persisted”. For the same molecule, the “effect on intraocular pressure” value (topical 1.2 mg/eye, QD or BID) was “reduce intraocular pressure”.
